The target in assay [1] is T1, yeast NADPH-cytochrome P450 reductase (yCPR) (Saccharomyces cerevisiae, UniProt P16603).
T1 sequence (P16603 34-691): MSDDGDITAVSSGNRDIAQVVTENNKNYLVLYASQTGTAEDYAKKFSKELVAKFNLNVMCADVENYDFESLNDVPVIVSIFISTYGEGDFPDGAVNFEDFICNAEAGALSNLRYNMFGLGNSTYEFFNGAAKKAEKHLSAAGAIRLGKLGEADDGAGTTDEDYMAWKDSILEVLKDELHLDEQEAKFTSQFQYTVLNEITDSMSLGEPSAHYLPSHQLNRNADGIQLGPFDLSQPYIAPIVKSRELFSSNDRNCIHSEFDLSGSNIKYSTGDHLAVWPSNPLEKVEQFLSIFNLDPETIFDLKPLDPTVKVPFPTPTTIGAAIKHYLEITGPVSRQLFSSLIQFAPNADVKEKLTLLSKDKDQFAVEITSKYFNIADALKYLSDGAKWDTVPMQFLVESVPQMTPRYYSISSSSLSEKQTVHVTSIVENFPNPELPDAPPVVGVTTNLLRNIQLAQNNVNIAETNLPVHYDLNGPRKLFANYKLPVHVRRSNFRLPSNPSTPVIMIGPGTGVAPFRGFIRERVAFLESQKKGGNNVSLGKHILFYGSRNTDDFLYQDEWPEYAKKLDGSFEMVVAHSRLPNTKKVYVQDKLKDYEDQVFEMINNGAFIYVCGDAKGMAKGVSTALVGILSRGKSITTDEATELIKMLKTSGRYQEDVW
The assay is described as follows: SPR. In kind it is binding.

Assay [2] addresses T1, yeast NADPH-cytochrome P450 reductase (yCPR). The assay is described as follows: SPR. In kind it is binding. The source holds these as a separate data set.

The structures appear in SMILES notation. Where two headings read alike, the source gives them in different places.

One may read the Kd as the concentration at which binding is half-saturated. A higher Kd goes with weaker binding. In assay [1], `Cc1cc2nc3c(=O)[nH]c(=O)nc-3n(C[C@H](O)[C@H](O)[C@H](O)COP(=O)(O)O)c2cc1C` [compound 7, FMN] came in with an equilibrium dissociation constant (Kd) of 300 nM. In other words, the sub-micromolar range. In the case of `Cc1cc2nc3c(=O)[nH]c(=O)nc-3n(C[C@H](O)[C@H](O)[C@H](O)COP(=O)(O)OP(=O)(O)OC[C@H]3O[C@@H](n4cnc5c(N)ncnc54)[C@H](O)[C@@H]3O)c2cc1C` [compound 8, FAD], the dissociation constant (Kd) in assay [2] is 2300 nM.

(Values after paper PMC2924936 (ACS chemical biology, 2010).)
